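A five-concentration, 48-hour dose response in 96-well plates underlies each endpoint, interpolated linearly between surrounding concentrations. GI50 is the concentration that inhibits growth by half.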 Activity calls are given as the source filed them. Cut-off read from the data, not from the text of the source: active = GI50 up to about 1.1 µM and inactive = higher. Where a SMILES comes first, the peptide text is derived from it. The star is where a group is joined. Fmoc = O=C(OCC1c2ccccc2-c2ccccc21)*; OtBu = CC(C)(C)O*
Experiments:
Assay in all cases: NCI-60 cell line screen, 48 h
SN12C = tested on: SN12C
A549 = tested on: A549
A498 = tested on: A498
COLO 205 = tested on: COLO 205
CCRF-CEM = tested on: CCRF-CEM
MDA-MB-435 = tested on: MDA-MB-435
SF-268 = tested on: SF-268
SK-MEL-28 = tested on: SK-MEL-28
T47D = tested on: T47D
KM12 = tested on: KM12
Hs-578T = tested on: Hs-578T
HL-60 = tested on: HL-60
OVCAR-4 = tested on: OVCAR-4
NCI-H23 = tested on: NCI-H23
IGROV-1 = tested on: IGROV-1
UACC-62 = tested on: UACC-62
LOX IMVI = tested on: LOX IMVI
OVCAR-8 = tested on: OVCAR-8
HOP-62 = tested on: HOP-62
OVCAR-3 = tested on: OVCAR-3

Measured: GI50

COc1ccc(C(OCC2OC(n3cc(C)c(=O)[nH]c3=O)CC2n2cc(Cn3cc(Br)c(=O)[nH]c3=O)nn2)(c2ccccc2)c2ccccc2)cc1 (stereo not given)
inactive: SN12C > 100 µM | A549 > 100 µM | A498 > 100 µM | COLO 205 > 100 µM | CCRF-CEM 2.53 µM | MDA-MB-435 6.55 µM | SF-268 > 100 µM | SK-MEL-28 > 100 µM | T47D > 100 µM | KM12 50.9 µM | Hs-578T > 100 µM | HL-60 2.07 µM | OVCAR-4 > 100 µM | NCI-H23 > 100 µM | IGROV-1 38.5 µM | UACC-62 > 100 µM | LOX IMVI > 100 µM | OVCAR-8 > 100 µM | HOP-62 > 100 µM | OVCAR-3 > 100 µM

COc1cc(/C=C(\C)[N+](=O)[O-])cc(OC)c1
inactive: SN12C 17.1 µM | A549 28.3 µM | A498 8.05 µM | COLO 205 8.05 µM | CCRF-CEM 2.4 µM | MDA-MB-435 14.9 µM | SF-268 19.3 µM | SK-MEL-28 18.4 µM | T47D 6.47 µM | KM12 19.3 µM | Hs-578T 26.9 µM | HL-60 2.04 µM | OVCAR-4 18.1 µM | NCI-H23 19.1 µM | IGROV-1 6.46 µM | UACC-62 14.6 µM | LOX IMVI 3.08 µM | OVCAR-8 15.6 µM | HOP-62 19.2 µM | OVCAR-3 17.8 µM

O=C(O)c1ccc(Nc2nc3ccccc3nc2-c2cccs2)cc1
inactive: SN12C > 100 µM | A549 44.2 µM | A498 47 µM | COLO 205 > 100 µM | CCRF-CEM > 100 µM | MDA-MB-435 > 100 µM | SF-268 82.2 µM | SK-MEL-28 > 100 µM | T47D 47 µM | KM12 64.1 µM | Hs-578T 50.7 µM | HL-60 > 100 µM | OVCAR-4 41.8 µM | NCI-H23 > 100 µM | IGROV-1 73.5 µM | UACC-62 65.5 µM | LOX IMVI 35.1 µM | OVCAR-8 54.2 µM | HOP-62 > 100 µM | OVCAR-3 > 100 µM

N#CC(C#N)C1CN2CCC1CC2 (stereo not given)
inactive: SN12C > 100 µM | A549 > 100 µM | A498 > 100 µM | COLO 205 > 100 µM | CCRF-CEM > 100 µM | MDA-MB-435 > 100 µM | SF-268 > 100 µM | SK-MEL-28 > 100 µM | T47D > 100 µM | KM12 > 100 µM | Hs-578T > 100 µM | HL-60 > 100 µM | OVCAR-4 > 100 µM | NCI-H23 > 100 µM | IGROV-1 > 100 µM | UACC-62 > 100 µM | LOX IMVI > 100 µM | OVCAR-8 79.6 µM | HOP-62 > 100 µM | OVCAR-3 > 100 µM

CCCCOC(=O)C(O)Cc1ccoc1 (stereo not given)
inactive: SN12C > 100 µM | A549 > 100 µM | A498 > 100 µM | COLO 205 > 100 µM | CCRF-CEM > 100 µM | MDA-MB-435 > 100 µM | SF-268 > 100 µM | SK-MEL-28 > 100 µM | T47D > 100 µM | KM12 > 100 µM | Hs-578T > 100 µM | HL-60 > 100 µM | OVCAR-4 > 100 µM | NCI-H23 > 100 µM | IGROV-1 > 100 µM | UACC-62 > 100 µM | LOX IMVI > 100 µM | OVCAR-8 > 100 µM | HOP-62 > 100 µM | OVCAR-3 > 100 µM

CC(C)C(NC(=O)OCC1c2ccccc2-c2ccccc21)C(=O)NC(CCC(=O)OC(C)(C)C)C(=O)OC(C)(C)C (stereo not given) (Fmoc-Val-Glu(OtBu)-OtBu; configuration not given here)
inactive: SN12C > 31.6 µM | A549 60 µM | A498 58.5 µM | COLO 205 > 31.6 µM | CCRF-CEM > 100 µM | MDA-MB-435 > 100 µM | SF-268 > 87.3 µM | SK-MEL-28 > 100 µM | T47D 8.57 µM | KM12 > 29.2 µM | Hs-578T > 100 µM | HL-60 4.14 µM | OVCAR-4 12.8 µM | NCI-H23 14.9 µM | IGROV-1 > 100 µM | UACC-62 > 76.9 µM | LOX IMVI 8.38 µM | OVCAR-8 23.9 µM | HOP-62 > 93.1 µM | OVCAR-3 > 100 µM

C[C@@H](CN1CC(=O)NC(=O)C1)N1CC(=O)NC(=O)C1 [DEXRAZOXANE]
inactive: SN12C 232 µM | A549 37.2 µM | A498 221 µM | COLO 205 12.5 µM | CCRF-CEM 21.4 µM | MDA-MB-435 395 µM | SF-268 378 µM | SK-MEL-28 458 µM | T47D 109 µM | KM12 522 µM | Hs-578T 320 µM | HL-60 51.1 µM | OVCAR-4 115 µM | NCI-H23 125 µM | IGROV-1 356 µM | UACC-62 147 µM | LOX IMVI 236 µM | OVCAR-8 282 µM | HOP-62 66.8 µM | OVCAR-3 224 µM
